According to article PMC6648837 (ACS Omega, 2019):
Where two headings read alike, the source gives them in different places.

Legend:
Colorado potato beetle = conditions: in vivo bioassays; cited from earlier work
CYP3A4 = CYP3A4 (Homo sapiens, UniProt P08684); test: CYP3A4 inhibition assay; type: biochemical; conditions: for times more potent than dillapiol as CYP3A4 inhibitor: dillapiol = 1; for increased CYP3A4 inhibition relative to the methyl ester 4a (factor): esters of primary alcohol 2; for CYP3A4 inhibition compared in words: versus dillapiol (14, 15: versus 13)
Chain of CYP3A4 (P08684 whole entry): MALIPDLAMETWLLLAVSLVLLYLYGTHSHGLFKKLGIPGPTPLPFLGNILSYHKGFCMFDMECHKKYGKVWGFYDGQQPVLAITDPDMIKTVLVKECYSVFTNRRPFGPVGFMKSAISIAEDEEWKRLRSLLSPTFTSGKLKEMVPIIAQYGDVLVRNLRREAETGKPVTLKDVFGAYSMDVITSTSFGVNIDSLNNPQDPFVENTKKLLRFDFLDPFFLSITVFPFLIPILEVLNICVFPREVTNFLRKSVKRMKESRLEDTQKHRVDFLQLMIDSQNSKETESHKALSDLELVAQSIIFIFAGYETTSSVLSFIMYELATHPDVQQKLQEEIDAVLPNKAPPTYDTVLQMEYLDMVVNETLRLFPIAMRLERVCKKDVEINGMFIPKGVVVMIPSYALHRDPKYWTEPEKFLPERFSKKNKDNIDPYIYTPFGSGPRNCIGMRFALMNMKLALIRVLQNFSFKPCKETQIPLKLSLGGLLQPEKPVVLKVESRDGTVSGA

## COc1c(CCCOC(=O)c2ccccc2)cc2c(c1OC)OCO2 [Compound 4g]
Colorado potato beetle
  insecticide synergism of pyrethrum: no insecticide synergism

## COc1c(CCCOC(=O)C=Cc2ccccc2)cc2c(c1OC)OCO2 [Compound 4l]
CYP3A4
  IC50: 2.4 µM

## C=CCc1cc2c(cc1OC)OCO2 [Compound 8b]
Colorado potato beetle
  insecticide synergism of pyrethrum: increased in vivo synergism relative to dillapiol

## COc1c(CCCOC(=O)C(c2ccccc2)c2ccccc2)cc2c(c1OC)OCO2 [Compound 4n]
CYP3A4
  increased CYP3A4 inhibition by a factor, benzhydryl versus benzyl group (4m): 5

## COc1c(CC(C)OC(=O)c2ccccc2)cc2c(c1OC)OCO2 (centres unmarked) [Compound 5g]
CYP3A4
  IC50: 3.5 µM

## C=CCc1cc2c(cc1OCc1ccccc1Cl)OCO2 [Compound 8f]
CYP3A4
  times more potent than dillapiol as CYP3A4 inhibitor: 86 times

## O=C(OCCCc1cc2c(cc1OCc1ccccc1)OCO2)C(c1ccccc1)c1ccccc1 [Compound 11g]
CYP3A4
  IC50: 1 µM

## COc1cc2c(cc1CCCOC(=O)C=Cc1ccccc1)OCO2 [Compound 11d]
CYP3A4
  IC50: 17.2 µM

## COc1c(CCCOC(=O)c2ccccc2Cl)cc2c(c1OC)OCO2 [Compound 4h]
CYP3A4
  IC50: 1.3 µM

## O=C(C=Cc1ccccc1)OCCCc1cc2c(cc1OCc1ccccc1)OCO2 [Compound 11e]
CYP3A4
  IC50: 4.7 µM

## C=CCc1cc2c(cc1OCc1ccccc1OC)OCO2 [Compound 8g]
CYP3A4
  times more potent than dillapiol as CYP3A4 inhibitor: 0.9 times

## COc1c(CCCOC(=O)c2ccc(Cl)cc2Cl)cc2c(c1OC)OCO2 [Compound 4j]
CYP3A4
  increased CYP3A4 inhibition relative to the methyl ester 4a (factor): greater than 6

## CCCCCC(=O)OCCCc1cc2c(c(OC)c1OC)OCO2 [Compound 4d]
CYP3A4
  increased CYP3A4 inhibition relative to the methyl ester 4a (factor): 2.8
CYP3A4; human, recombinant CYP3A4 (BD Gentest), probe dibenzyl fluorescein (DBF)
  IC50: 3.3 µM

## COc1c(CC(C)O)cc2c(c1OC)OCO2 (centres unmarked) [Compound 3]
CYP3A4
  CYP3A4 inhibition compared in words: less potent than dillapiol

## COc1c(CC(C)OC(C)=O)cc2c(c1OC)OCO2 (centres unmarked) [Compound 5a]
CYP3A4
  IC50: > 20 µM

## COc1c(CCCOC(=O)c2ccc(Cl)cc2)cc2c(c1OC)OCO2 [Compound 4i]
CYP3A4
  IC50: 1.6 µM
  increased CYP3A4 inhibition relative to the methyl ester 4a (factor): greater than 6

## COc1c(CCCOC(C)=O)cc2c(c1OC)OCO2 [Compound 4a]
Colorado potato beetle
  insecticide synergism of pyrethrum: no insecticide synergism
CYP3A4
  CYP3A4 inhibition compared in words: essentially the same inhibitory effect as dillapiol
